Data published in PMC6423055, “Cathelicidins PMAP-36, LL-37 and CATH-2 are similar peptides with different modes of action” (Scientific Reports, 2019).
Read-outs that look alike come from different tables or passages of the source. Positions of bridges follow the written chain, without caps; N, C: chain ends. Chains are numbered I, II in the order given. No end group written: not given here.

What was measured:
porcine red blood cells = experiment: Hemolysis (heme release); conditions: peptide 0.63–40 μM, 60 min 37 °C, A405, 0.2% Triton X-100 = 100% lysis, N = 5–7
RAW264.7 cells = experiment: Cell viability, WST-1 assay; conditions: WST-1, 24 h, peptide up to 40 μM, no peptide = 100% viability
porcine PBMCs = experiment: Cell viability, WST-1 assay; conditions: WST-1, 24 h, effect at 20–40 μM, N = 6
Escherichia coli O78 [1] = assay type: cell-based
Protocol: Escherichia coli O78 (E. coli) (Clinical isolate, Zoetis Animal Health, Kalamazoo, MI, USA) was grown in Mueller Hinton Broth (MHB) (Becton Dickinson, USA) to mid-logarithmic phase under constant shaking (200 RPM) at 37 °C. Antimicrobial activity of the peptides was tested using the colony count assay as described before. […] Next, 10-fold dilutions were made, of which 100 μl of the dilutions was spread to tryptic soy agar (TSA) (Oxoid, Basingstoke, UK) plates. Plates were incubated overnight at 37 °C and colonies were counted to determine the number of surviving bacteria. Minimal Bactericidal Concentration (MBC) was defined as ≤100 CFU/ml, the detection limit of the assay.
(§1) For transmission electron microscopy (TEM), E. coli was used in a higher concentration, (5*10^8 CFU/ml). […] E. coli was incubated with the peptides at MBC concentration or sub-MBC concentration (4x below MBC concentration). After 60 min at 37 °C, fixative (4% glutaraldehyde, 5 mM CaCl2, 10 mM MgCl2 (all from Merck, Darmstadt, Germany) in 0.1 M sodium cacodylate buffer (Sigma) pH 7.4) was added 1:1 to the bacterial-peptide mixture and left for fixation overnight at 4 °C. Samples were washed three times in 0.1 M sodium cacodylate buffer and resuspended in 4% low melting point agarose (Sigma). Samples were post-fixed with 1% osmium tetroxide (Electron Microscopy Sciences (EMS), Hatfield, PA, USA), 1.5% K3Fe(CN)6 (Merck) and 65 mM sodium cacodylate buffer for 2 hours at 4 °C to improve the contrast. After extensive washing with distilled water (5 × 10 min), samples were incubated for 60 min with 0.5% uranyl acetate (EMS) at 4 °C to improve cytoplasmic contrast. After washing with distilled water (3 × 10 min), samples were dehydrated with increasing concentration ethanol and embedded in Epon. […] Morphological effects were quantified for around 100 cells per condition.

[2] = test system: LPS-induced NO production by RAW264.7 cells; assay type: cell-based, murine; conditions: 100 ng/ml LPS O111:B4, 24 h, Griess assay, compared with full-length PMAP-36
Escherichia coli O78 [3] = conditions: for Antibacterial activity against E. coli O78 compared with parent or dimeric counterpart: N = 3–7; for Minimal Bactericidal Concentration (MBC): O78, 3 h
[4] = test system: LPS-induced TNFα secretion by RAW264.7 cells; experiment: LPS stimulation, TNFα release (ELISA); assay type: cell-based, murine; conditions: for LPS neutralization, TNFα secretion: compared with full-length PMAP-36
[5] = Isothermal titration calorimetry, peptide binding to LPS; set-up: species or system Escherichia coli; conditions: ITC, 37 °C
Protocol: Isothermal titration calorimetry (ITC) was performed with the Low Volume NanoITC (TA Instruments-Waters LLC, New Castle, DE, USA) to determine interaction between LPS and the different peptides. 100 μM UltraPure LPS E. coli O111:B4 was diluted in MilliQ, after which 4x dilution in dPBS (Gibco) was made. Peptides were diluted to 800 μM in MilliQ, followed by 4-fold dilution in dPBS. The chamber was filled with 164 μl LPS, the peptide was titrated into the chamber with 1.96 μl every 300 seconds. Experiments were performed at 37 °C and analyzed using the Nano Analyze software (TA instruments-Waters LLC). All experiments were performed 2 times and corrected for buffer in buffer titration, after which the both experiments were averaged. Two independent models were used, except for LL-37 with one independent model fit, to determine the peptide-LPS interaction.

Escherichia coli O78 [6] = experiment: Transmission electron microscopy of peptide-treated bacteria; assay type: cell-based; conditions: TEM, 5*10^8 CFU/ml, 60 min 37 °C
Protocol: as §1

Compound	LPS neutralization, NO production [2]	Antibacterial activity against E. coli O78 compared with parent or dimeric counterpart (Escherichia coli O78 [3]; 10^6 CFU/ml, 3 h 37 °C)	LPS neutralization, TNFα secretion ([4]; 100 ng/ml LPS O111:B4, 24 h)	Minimal Bactericidal Concentration (MBC) (Escherichia coli O78 [3]) [µM]	other results
CC[C@H](C)[C@H](NC(=O)[C@H](CCCCN)NC(=O)[C@H](CCC(=O)O)NC(=O)[C@H](CCCCN)NC(=O)[C@H](CO)NC(=O)[C@H](CCCCN)NC(=O)[C@H](CCCNC(=N)N)NC(=O)[C@H](Cc1ccccc1)NC(=O)[C@H](Cc1ccccc1)NC(=O)[C@H](CC(=O)O)NC(=O)CNC(=O)[C@H](CC(C)C)NC(=O)[C@@H](N)CC(C)C)C(=O)NCC(=O)N[C@@H](CCCCN)C(=O)N[C@@H](CCC(=O)O)C(=O)N[C@@H](Cc1ccccc1)C(=O)N[C@@H](CCCCN)C(=O)N[C@@H](CCCNC(=N)N)C(=O)N[C@H](C(=O)N[C@H](C(=O)N[C@@H](CCC(N)=O)C(=O)N[C@@H](CCCNC(=N)N)C(=O)N[C@H](C(=O)N[C@@H](CCCCN)C(=O)N[C@@H](CC(=O)O)C(=O)N[C@@H](Cc1ccccc1)C(=O)N[C@@H](CC(C)C)C(=O)N[C@@H](CCCNC(=N)N)C(=O)N[C@@H](CC(N)=O)C(=O)N[C@@H](CC(C)C)C(=O)N[C@H](C(=O)N1CCC[C@H]1C(=O)N[C@@H](CCCNC(=N)N)C(=O)N[C@H](C(=O)N[C@@H](CCC(=O)O)C(=O)N[C@@H](CO)C(=O)O)[C@@H](C)O)C(C)C)[C@@H](C)CC)C(C)C)[C@@H](C)CC [LL-37]	–	–	–	–	Hemolysis of porcine erythrocytes (porcine red blood cells): less than 10%; Cytotoxicity against RAW264.7 cells (RAW264.7 cells): mildly cytotoxic; Cytotoxicity against porcine PBMCs (porcine PBMCs): not; MBC at higher density of bacteria (Escherichia coli O78 [1]; 5*10^8 CFU/ml E. coli O78, density used for TEM): 160 µM
Ac-GRFRRLRKKTRKRLKKIGKVLKWIPPIVGSIPLGS [mP1, monomeric analog of PMAP-36, Cys35 replaced by serine, last amino acid deleted]	as efficient as the full-length peptide	slightly increased compared to their dimeric counterparts	as efficient as the full-length peptide	–	–
Ac-KIGKVLKWIPPIVGSIPLGS [mP16]	–	lost its antibacterial activity completely	–	–	–
Ac-KRLKKIGKVLKWIPPIVGSIPLGCG (disulfide (positions not given here)) [Peptide P12, PMAP-36 analog with N-terminal truncation of 11 amino acids]	as strongly inhibited	slightly more efficient than the full-length peptide	as strongly inhibited	–	–
Ac-KRLKKIGKVLKWIPPIVGSIPLGS [mP12, monomeric analog of P12]	strongly reduced LPS neutralizing capacity	identical to P12	strongly reduced LPS neutralizing capacity	–	–
Ac-RKKTRKRLKKIGKVLKWIPPIVGSIPLGS [mP7, monomeric analog of P7]	strongly reduced LPS neutralizing capacity	slightly increased compared to their dimeric counterparts	strongly reduced LPS neutralizing capacity	–	–
I: Ac-GRFRRLRKKTRKRLKKIGKVLKWIPPIVGSIPLGCG / II: Ac-GRFRRLRKKTRKRLKKIGKVLKWIPPIVGSIPLGCG (disulfide I:35-II:35) [PMAP-36]	–	–	–	5 to 10	Concentration giving significant inhibition of E. coli O78 (Escherichia coli O78 [3]; 10^6 CFU/ml, 3 h 37 °C, vs no peptide control, N = 3–4): 2.5 µM; LPS binding [5]: strong LPS binding capacity; Concentration completely blocking TNFα secretion ([4]; 100 ng/ml LPS O111:B4, 24 h, N = 3): 10 µM; IC50 ([4]; 100 ng/ml LPS O111:B4, RAW264.7, 24 h, read-out: Concentration reducing LPS-induced macrophage activation for 50%): 5 µM; MBC at higher density of bacteria (Escherichia coli O78 [1]; O78, 3 h): 20 µM; Morphological changes of E. coli O78 at sub-MBC (Escherichia coli O78 [6]; 4x below MBC (PMAP-36 5 μM, CATH-2 10 μM, LL-37 40 μM)): release of small vesicles; Morphological changes of E. coli O78 at MBC (Escherichia coli O78 [6]; MBC (PMAP-36 20 μM, CATH-2 40 μM, LL-37 160 μM)): DNA and ribosomes were clustered and located close to the inner membrane
I: Ac-KIGKVLKWIPPIVGSIPLGCG / II: Ac-KIGKVLKWIPPIVGSIPLGCG (disulfide I:20-II:20) [Peptide P16]	completely lost its LPS neutralizing capacity	–	completely lost its LPS neutralizing capacity	> 40	LPS binding [5]: still bound strongly to LPS
I: Ac-RKKTRKRLKKIGKVLKWIPPIVGSIPLGCG / II: Ac-RKKTRKRLKKIGKVLKWIPPIVGSIPLGCG (disulfide I:29-II:29) [Peptide P7]	as strongly inhibited	slightly more efficient than the full-length peptide	as strongly inhibited	–	–
RFGRFLRKIRRFRPKVTITIQGSARF-NH2 [CATH-2]	–	–	–	5 to 10	MBC at higher density of bacteria (Escherichia coli O78 [1]; O78, 3 h): 40 µM
